Structures are written as SMILES.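 Each compound was tested at five concentrations against cells in 96-well plates for 48 hours. GI50 is the concentration that inhibits growth by half.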 The source made the active and inactive calls. No stated cut-off is given here; in the data, active = GI50 up to about 1.1 µM and inactive = higher.

Common to all, as to assay: NCI anticancer screen, dose series, 48 h
Assay [1] relates to MOLT-4.
Assay [2] deals with SK-MEL-5.
Assay [3] has as its system SF-268.
In assay [4] the test system is SW-620.
Assay [5] relates to DU-145.
Assay [6] has as its system NCI-H226.
Assay [7] relates to CCRF-CEM.
The test system of assay [8] is TK-10.
For assay [9], the system named is SF-539.
Assay [10] has as its system UACC-257.
Assay [11] relates to HCT-116.
The subject of assay [12] is KM12.
The subject of assay [13] is SF-295.
Assay [14] has as its system OVCAR-4.
Assay [15] concerns SR.
Assay [16] concerns PC-3.

Consider `OCCC/N=C1N=C(Cl)/C(=C\c2ccccc2)N\1`, for which the GI50 in [1], in assay [2], in assay [3], in assay [4], in assay [5] and in assay [6] was > 100 µM (inactive) in each case. Besides, the GI50 in assay [7], in [8], in [9], in assay [10], in assay [11] and in assay [12] was > 100 µM (inactive) each time. Also, the GI50 in assay [13], in [14] and in [15] was > 100 µM (inactive) throughout.

As to `O=C1C2CCCCC2C(=O)N1n1c(Cc2ccc(Cl)cc2)n[nH]c1=O` (centres undefined), the GI50 in [1], in assay [2], in assay [3], in assay [4], in [6] and in assay [7] was > 100 µM (inactive) throughout. The GI50 in assay [8], in assay [9], in assay [10], in assay [11], in assay [12] and in [16] was > 100 µM (inactive) throughout. In addition, the GI50 in assay [13], in [14] and in assay [15] was > 100 µM (inactive) throughout.

Turning to `Nc1ccc2ccc(-c3ccc[nH]3)nc2n1`, the GI50 in assay [2], in assay [3], in assay [4], in assay [6], in assay [8] and in assay [9] was > 100 µM (inactive) in each case. The GI50 in [10], in assay [11], in [12], in assay [16], in assay [13] and in [14] was > 100 µM (inactive) throughout.

As to `CC(C)(C)OC(=O)NC(CCCCNC(=O)OCc1ccccc1)C(=O)NC(CCCCNC(=O)OCc1ccccc1)C(=O)ON1C(=O)CCC1=O` (centres undefined), the GI50 in assay [1], in [2], in assay [4], in [6], in assay [7] and in assay [8] was > 100 µM (inactive) in each case. Besides, the GI50 in [10], in [11], in assay [12], in assay [16] and in assay [15] was > 100 µM (inactive) in each case.

On to `COc1ccc(Cl)cc1NC(=O)O/N=C(\Cl)C(C)C`, for which the GI50 in assay [1] is 2.03 µM (inactive); in [2], 5.22 µM (inactive); in assay [3] it was 21.5 µM (inactive); in [4] it was 2.7 µM (inactive); in assay [5], 19.3 µM (inactive); in assay [6], 12.7 µM (inactive). Also, the GI50 in assay [7] is 1.04 µM (active); in assay [8] it was 2.55 µM (inactive); in assay [9] it was 13.1 µM (inactive); in [10], 17.1 µM (inactive); in [11], 7.19 µM (inactive); in assay [12], 16.8 µM (inactive). Further, the GI50 was 17.4 µM (inactive) in assay [16], 17.9 µM (inactive) in assay [13] and 17.2 µM (inactive) in assay [14].

On to `CCOC(=O)C1=C(N2CCCC2)C(=O)C(C(=O)OCC)C1` (centres undefined), for which the GI50 in [1], in assay [2], in assay [3], in assay [4], in assay [6] and in assay [8] was > 100 µM (inactive) in each case. Besides, the GI50 in assay [9], in [10], in assay [11], in assay [12], in assay [16] and in assay [13] was > 100 µM (inactive) each time. The GI50 in [14] was > 100 µM (inactive).

As for `Cc1ccc(S(=O)(=O)Nn2c(S)c(C#N)c(-c3ccc([N+](=O)[O-])cc3)c(C#N)c2=O)cc1`, the GI50 is 17.3 µM (inactive) in [1]; 12 µM (inactive) in assay [2]; 30.7 µM (inactive) in [3]; 19.2 µM (inactive) in assay [4]; 40.6 µM (inactive) in [6]; 23.2 µM (inactive) in [7]. The GI50 in [8] was 65.3 µM (inactive); in assay [9], 16.7 µM (inactive); in [10], 40.8 µM (inactive); in assay [11] it was 16.9 µM (inactive); in assay [12], 31.6 µM (inactive); in [16], 27.2 µM (inactive). Also, the GI50 in assay [13] was 49.4 µM (inactive); in [14], 24.7 µM (inactive).

As for `CCCNC(=O)N(C)C(=O)N1N=C(c2ccccc2)C1c1ccccc1` (centres undefined), the GI50 in assay [1] is 23.7 µM (inactive); in [2] it was 87.3 µM (inactive); in assay [4] it was > 100 µM (inactive); in assay [5], > 100 µM (inactive); in [6] it was > 100 µM (inactive); in [7] it was 17.7 µM (inactive). Also, the GI50 in assay [8] is > 100 µM (inactive); in [9], > 100 µM (inactive); in assay [10], 82.6 µM (inactive); in assay [11], 51.8 µM (inactive); in assay [12], 40.5 µM (inactive); in [16], 56.9 µM (inactive). Moreover, the results for the GI50 in assay [13] and in [14] were 64.7 µM (inactive) and 46.1 µM (inactive), respectively.

As to `C/C(=C\c1ccc(Cl)c(Cl)c1)[N+](=O)[O-]`, the GI50 in assay [1] was 0.398 µM (active); in assay [2], 2.04 µM (inactive); in assay [3], 1.4 µM (inactive); in assay [4], 0.986 µM (active); in assay [5], 1.63 µM (inactive); in assay [6], 2.46 µM (inactive). Further, the GI50 is 1.86 µM (inactive) in [8]; 2.03 µM (inactive) in assay [9]; 1.3 µM (inactive) in assay [10]; 2.77 µM (inactive) in [11]; 2.02 µM (inactive) in [12]; 3.68 µM (inactive) in assay [13]. In addition, the figures for the GI50 in assay [14] and in assay [15] were 2.51 µM (inactive) and 0.685 µM (active), respectively.

As for `Cc1cc(S(=O)(=O)Nc2n[nH]c(Nc3ccccc3)n2)c(S)cc1Cl`, the GI50 in assay [1], in assay [2], in assay [3], in assay [4], in [5] and in [6] was > 10 µM (inactive) throughout. In addition, the GI50 in [7], in assay [8], in assay [9], in assay [10], in [11] and in [12] was > 10 µM (inactive) in each case. The GI50 in [16], in assay [13] and in assay [14] was > 10 µM (inactive) in each case.

With `CCOC(=O)c1sc2c(c1OC(=O)c1ccccc1)c(=O)n(-c1ccccc1)c(=S)n2-c1ccccc1`, the GI50 in assay [1] is 42.8 µM (inactive); in assay [2] it was 20.7 µM (inactive); in assay [3], 38.5 µM (inactive); in assay [4] it was 44.6 µM (inactive); in assay [5], 34.1 µM (inactive); in [6], > 100 µM (inactive). Also, the GI50 was 41.8 µM (inactive) in assay [7]; 70.1 µM (inactive) in assay [8]; 20.6 µM (inactive) in assay [9]; 87.3 µM (inactive) in assay [10]; 16.2 µM (inactive) in [11]; 40.6 µM (inactive) in assay [12]. Besides, the results for the GI50 in assay [16], in assay [13] and in [14] were 33.7 µM (inactive), 49.7 µM (inactive) and 12.4 µM (inactive), respectively.

Take `COc1cccc(OC)c1NC(=O)C(=O)Nn1c(NNC(=O)c2ccncc2)nc2ccccc2c1=O`: the GI50 in [1], in [2], in assay [3], in [4], in assay [6] and in [7] was > 100 µM (inactive) in each case. Also, the GI50 in [8], in [9], in assay [10], in assay [11], in assay [12] and in assay [16] was > 100 µM (inactive) each time. Also, the GI50 in assay [13] and in assay [14] was > 100 µM (inactive) each time.

On to `CSc1nc(Cl)c2c(n1)Sc1nc3ccccc3n1N=C2`, for which the GI50 was 21.7 µM (inactive) in assay [1]; 21.3 µM (inactive) in assay [2]; 31 µM (inactive) in [3]; 13.2 µM (inactive) in assay [4]; > 100 µM (inactive) in assay [5]; 62.7 µM (inactive) in assay [6]. Further, the GI50 was 14.9 µM (inactive) in [7]; 33.7 µM (inactive) in assay [8]; 35.8 µM (inactive) in assay [10]; 25.1 µM (inactive) in [11]; 37.8 µM (inactive) in assay [12]; 22.3 µM (inactive) in assay [16]. The values for the GI50 in assay [13] and in [14] were > 100 µM (inactive) and 29.4 µM (inactive), respectively.

`Cc1c(O)c(=O)ccn1CCc1c[nH]c2ccccc12`: the GI50 is 8.2 µM (inactive) in assay [1]; 6.52 µM (inactive) in assay [2]; 2.44 µM (inactive) in assay [3]; 7.23 µM (inactive) in [4]; 6.44 µM (inactive) in assay [5]; 4.81 µM (inactive) in assay [8]. In addition, the GI50 in [9] is 19.7 µM (inactive); in assay [10] it was 3.92 µM (inactive); in assay [11] it was 6.61 µM (inactive); in assay [12] it was 22 µM (inactive); in assay [16], 28.4 µM (inactive); in assay [13] it was 3.93 µM (inactive). For the same compound, the GI50 in assay [15] was 5.73 µM (inactive).

The record behind these values is ChEMBL document CHEMBL1201862, “PubChem BioAssay data set” (2004).
